pEC50: −log10 of the molar value. Counter-ions that a name gives are not always drawn. A value given as a limit tells only on which side of the number the result lay.

The first assay has as its system HIV. Put plainly: Anti-HIV activity in HIV-infected human peripheral blood lymphocytes (supernatant viral RNA and p24 core protein). Particulars: Human immunodeficiency virus 1, Lymphocyte, read-out: percent inhibition of viral RNA production. It is filed as cell-based. The protocol:
Human peripheral blood lymphocytes were isolated from the buffy coat fractions of blood donations. The lymphocytes were then stimulated with 5 μg/ml of phytohemagglutinin for 48 hours. Prior to infection with HIV, the lymphocytes were washed and resuspended in mitogen-free medium. On day 0 the cells were infected with HIV and were cultured for four days in the presence or absence of graded concentrations of 20-deoxy-20-chlorophorbol 12,13-bis[(2',4'-difluorophenyl)acetate]. On days 3 and 4 the supernatant levels of total viral RNA and viral core protein p24 were determined at each drug concentration and dose-response curves were used to determine the concentration of drug giving 50% inhibition of production of viral RNA and of p24 core protein. At four days these ED50 values were less than 100 pM for both RNA and p24.
In a manner similar to Example 111, the anti-HIV ED50 values for RNA [drug concentration is in brackets] for the following diterpenoid compounds were determined from dose-response curves or by estimation from one or more experimental drug concentrations.
In a manner similar to Example 111, the anti-HIV ED50 values for RNA [drug concentration is in brackets] for the following indolactam-type compounds were determined from dose-response curves or by estimation from one or more experimental drug concentrations, data giving percent inhibition of viral RNA production at selected concentrations appear in parentheses:
In a manner similar to Example 111, the anti-HIV ED50 values for RNA [drug concentration is in brackets] for the following diacylglycero-type compounds were determined from dose-response curves or by estimation from one or more experimental drug concentrations; data giving percent inhibition of viral RNA production at selected concentrations appear in parentheses: […]
The term inhibition denotes the drop in the measured response relative to a control, in per cent. Take `CNC(=O)OC[C@@H]1Cc2c[nH]c3cccc(c23)N(C)[C@@H](C(C)C)C(=O)N1` (relative stereo) [rac-14-O-(N-methyl)carbamoylindolactam V]: the inhibition at 10 µM was 52%.
In the case of `CNC(=O)OC[C@@H]1Cc2cn(CC[P+](c3ccccc3)(c3ccccc3)c3ccccc3)c3cccc(c23)N(C)[C@@H](C(C)C)C(=O)N1` (relative stereo) [rac-14-O-(N-methyl)carbamoyl-1-N-(2'-triphenylphosphonium)ethylindolactam V, methanesulfonate salt], the inhibition at 10 µM is 82%.
Regarding `CCCCCCCCc1ccc2c3c(c[nH]c13)C[C@@H](COC(=O)NC)NC(=O)[C@H](C(C)C)N2C` [14-O-(N-Methyl)carbamoyl-7-octyl-(9S,12S)-indolactam V], the inhibition at 10 µM was determined as 87%.

The same assay, now with this note: Human immunodeficiency virus 1, Lymphocyte; at 10 μM; read-out: percent inhibition of viral RNA production.
For the compound `CCOC(=O)[C@@H]1Cc2cn(CO)c3cccc(c23)N(C)[C@@H](C(C)C)C(=O)N1` [1-N-hydroxymethyl-9-deshydroxymethyl-9-ethoxycarbonylindolactam V], the inhibition at 10 µM was 31%.

Staying with this assay, now noted: Human immunodeficiency virus 1, Lymphocyte; from dose-response curves or by estimation from one or more experimental drug concentrations; read-out: anti-HIV ED50 for RNA.
Take `CC1=C[C@H]2[C@@]3(O)[C@H](C)[C@@H](OC(=O)Cc4ccc(F)cc4F)[C@]4(OC(=O)Cc5ccc(F)cc5F)[C@H]([C@@H]3C=C(CSCCC(=O)O)C[C@]2(O)C1=O)C4(C)C` [20-deoxy-20-(2'-carboxyethylthio)phorbol 12,13-bis(2',4'-difluorophenylacetate)]: the pEC50 was 5.35.
With `CC1=C[C@H]2[C@@]3(O)[C@H](C)[C@@H](OC(=O)Cc4ccc(F)cc4F)[C@]4(OC(=O)Cc5ccc(F)cc5F)[C@H]([C@@H]3C=C(C=NO)C[C@]2(O)C1=NO)C4(C)C` [20-deoxy-3-deoxo-3,20-bis(hydroximino)phorbol 12,13-bis[(2',4'-difluorophenyl)acetate]], the pEC50 was 7.35.
Still for that read-out and setting: the figure for `CC(C)[C@H]1C(=O)N[C@H](CSCCO)Cc2c[nH]c3cccc(c23)N1C` [14-deoxy-14-(2'-hydroxyethylthio)indolactam V] is 6.00; for `CC1=C[C@H]2[C@@]3(O)[C@H](C)[C@@H](OC(=O)Cc4ccc(F)cc4F)[C@]4(OC(=O)Cc5ccc(F)cc5F)[C@H]([C@@H]3C=C(CN=[N+]=[N-])C[C@]2(O)C1=O)C4(C)C` [20-deoxy-20-azidophorbol 12,13-bis[(2',4'-difluorophenyl)acetate]] it is 7.19.
In the case of `CC1=C[C@H]2[C@@]3(O)[C@H](C)[C@@H](OC(=O)Cc4ccc(F)cc4F)[C@]4(OC(=O)Cc5ccc(F)cc5F)[C@H]([C@@H]3C=C(COC(=O)Oc3ccc(O)cc3)C[C@]2(O)C1=O)C4(C)C` [20-O-(4'-hydroxyphenoxy)carbonylphorbol 12,13-bis[(2',4'-difluorophenyl)acetate]], the pEC50 is > 8.00.
With `CC1=C[C@H]2[C@@]3(O)[C@H](C)[C@@H](OC(=O)Cc4ccc(F)cc4F)[C@]4(OC(=O)Cc5ccc(F)cc5F)[C@H]([C@@H]3C=C(C[S+]([O-])CCO)C[C@]2(O)C1=O)C4(C)C` (some centres unmarked) [20-deoxy-20-(2'-hydroxyethylsulfinyl)phorbol 12,13-bis[(2',4'-difluorophenyl)acetate]], the pEC50 was 5.80.
Regarding `CC1=C[C@H]2[C@@]3(O)[C@H](C)[C@@H](OC(=O)Cc4ccc(F)cc4F)[C@]4(OC(=O)Cc5ccc(F)cc5F)[C@H]([C@@H]3C=C(CBr)C[C@]2(O)C1=O)C4(C)C` [20-deoxy-20-bromophorbol 12,13-bis[(2',4'-difluorophenyl)acetate]], the pEC50 is > 9.00.
For the compound `CC1=C[C@H]2[C@@]3(O)[C@H](C)[C@@H](OC(=O)Cc4c(F)c(F)c(F)c(F)c4F)[C@]4(OC(=O)Cc5c(F)c(F)c(F)c(F)c5F)[C@H]([C@@H]3C=C(CCl)C[C@]2(O)C1=O)C4(C)C` [20-deoxy-20-chlorophorbol 12,13-bis[(pentafluorophenyl)acetate]], the pEC50 is > 9.00.
Consider `CC1=C[C@H]2[C@@]3(O)[C@H](C)[C@@H](OC(=O)Cc4ccc(F)cc4F)[C@]4(OC(=O)Cc5ccc(F)cc5F)[C@H]([C@@H]3C=C(CN)C[C@]2(O)C1=O)C4(C)C` [20-deoxy-20-aminophorbol 12,13-bis[(2',4'-difluorophenyl)acetate]], for which the pEC50 is 7.00.
Regarding `CCC[S+]([O-])CC1=C[C@H]2[C@@H]3C(C)(C)[C@]3(OC(=O)Cc3ccc(F)cc3F)[C@H](OC(=O)Cc3ccc(F)cc3F)[C@@H](C)[C@]2(O)[C@@H]2C=C(C)C(=O)[C@@]2(O)C1` (some centres unmarked) [20-deoxy-20-(propylsulfinyl)phorbol 12,13-bis[(2',4'-difluorophenyl)acetate]], the pEC50 is 6.30.
For `CC1=C[C@H]2[C@@]3(O)[C@H](C)[C@@H](OC(=O)Cc4ccc(F)cc4F)[C@]4(OC(=O)Cc5ccc(F)cc5F)[C@H]([C@@H]3C=C(CSCC(O)CO)C[C@]2(O)C1=O)C4(C)C` (some centres unmarked) [20-deoxy-20-(2',3'-dihydroxypropylthio)phorbol 12,13-bis[(2',4'-difluorophenyl)acetate]], the pEC50 was 5.52.
Consider `CC1=C[C@H]2[C@@]3(O)[C@H](C)[C@@H](OC(=O)Cc4ccc(F)cc4F)[C@]4(OC(=O)Cc5ccc(F)cc5F)[C@H]([C@@H]3C=C(C#N)C[C@]2(O)C1=O)C4(C)C` [6-deshydroxymethyl-6-cyanophorbol 12,13-bis[(2',4'-difluorophenyl)acetate]], for which the pEC50 was > 7.00.
Same read-out and setting: the figure for `CCCCCCCCCCCCCC(=O)O[C@@H]1[C@@H](C)[C@@]2(O)[C@@H](C=C(COC(=O)Nc3ccc(F)c([N+](=O)[O-])c3)C[C@]3(O)C(=O)C(C)=C[C@@H]23)[C@@H]2C(C)(C)[C@]12OC(C)=O` [phorbol 12-myristate 13-acetate 20-(4'-fluoro-3'-nitrophenyl)carbamate] is 5.40.
For `CCCSCC1=C[C@H]2[C@@H]3C(C)(C)[C@]3(OC(=O)Cc3ccc(F)cc3F)[C@H](OC(=O)Cc3ccc(F)cc3F)[C@@H](C)[C@]2(O)[C@@H]2C=C(C)C(=O)[C@@]2(O)C1` [20-deoxy-20-propylthiophorbol 12,13-bis[(2',4'-difluorophenyl)acetate]], the pEC50 is 8.00.
For the compound `O=C1CCCCCCCCCCCCCCCCCCC(=O)OC(CSCCO)CO1` (centres unmarked) [3-[(2'-hydroxyethylthio)methyl]-1,6-dioxo-2,5-dioxacyclotetracosane], the pEC50 was 8.00.
For the compound `CCCCCCCCc1ccc2c3c(c[nH]c13)C[C@@H](CSCCO)NC(=O)[C@H](C(C)C)N2C` [14-deoxy-14-(2'-hydroxyethylthio)-7-octyl-(9S,12S)-indolactam V], the pEC50 was 7.00.
As to `CC1=C[C@H]2[C@@]3(O)[C@H](C)[C@@H](OC(=O)Cc4ccc(F)cc4F)[C@]4(OC(=O)Cc5ccc(F)cc5F)[C@H]([C@@H]3C=C(CNc3cccc(CO)c3)C[C@]2(O)C1=O)C4(C)C` [20-deoxy-20-[(3'-hydroxymethylphenyl)amino]phorbol 12,13-bis[(2',4'-difluorophenyl)acetate]], the pEC50 was 6.74.
As for `CCCCCCCCCCCCCC(=O)O[C@@H]1[C@@H](C)[C@@]2(O)[C@@H](C=C(C[S+]([O-])CCO)C[C@]3(O)C(=O)C(C)=C[C@@H]23)[C@@H]2C(C)(C)[C@]12OC(C)=O` (some centres unmarked) [20-deoxy-20-(2'-hydroxyethylsulfinyl)phorbol 12-myristate 13-acetate], the pEC50 was 5.96.
Regarding `CC1=C[C@H]2[C@@]3(O)[C@H](C)[C@@H](OC(=O)Cc4ccc(F)cc4F)[C@]4(OC(=O)Cc5ccc(F)cc5F)[C@H]([C@@H]3C=C(CS(=O)(=O)CCO)C[C@]2(O)C1=O)C4(C)C` [20-deoxy-20-(2'-hydroxyethylsulfonyl)phorbol 12,13-bis[(2',4'-difluorophenyl)acetate]], the pEC50 is 5.30.
In the case of `CCCCCCCCCCCCCC(=O)O[C@@H]1[C@@H](C)[C@@]2(O)[C@@H](C=C(CS(=O)(=O)CCO)C[C@]3(O)C(=O)C(C)=C[C@@H]23)[C@@H]2C(C)(C)[C@]12OC(C)=O` [20-deoxy-20-(2'-hydroxyethylsulfonyl)phorbol 12-myristate 13-acetate], the pEC50 is 6.30.
`CC1=C[C@H]2[C@@]3(O)[C@H](C)[C@@H](OC(=O)Cc4ccc(F)cc4F)[C@]4(OC(=O)Cc5ccc(F)cc5F)[C@H]([C@@H]3C=C(CSCCO)C[C@]2(O)C1=O)C4(C)C` [20-deoxy-20-(2'-hydroxyethylthio)phorbol 12,13-bis[(2',4'-difluorophenyl)acetate]]: the pEC50 is 6.00.

Staying with this assay, now noted: at 10 μM.
As to `CC(C)C1C(=O)NC(C(=O)OCC(O)CO)Cc2c[nH]c3cccc(c23)N1C` (centres unmarked) [9-deshydroxymethyl-9-(2',3'-dihydroxy)propyloxycarbonylindolactam V], the “percent inhibition of viral RNA production” value (shortened to “percent inhibition”) is recorded as 20%.
On to “9-deshydroxymethyl-9-ethoxycarbonylindolactam V”, for which the “percent inhibition” value is reported as 47%.
“9-Deshydroxymethyl-9-[N-(2',3'-dihydroxy)propyl]carboxamidoindolactam V”: the “percent inhibition” value was found to be 22%.
With “9-deshydroxymethyl-9-[N-(2'-glucosyl)]carboxamidoindolactam V”, the “percent inhibition” value amounted to 35%.

The record behind these values is patent US5955501A, “Protein kinase C modulators O” (priority 1995, dated 1999).
